Series [1] can be described thus: Particle size determination (Hiac/Royco system). The format is physicochemical. The note with it: production lot used for FIG. 1 tablets. Here is the method:
Particle size can be determined by various methods known to those in the art, such as, but not limited to, laser particle size detectors. Particle size, as defined herein, is determined using a Hiac/Royco system, which includes the Model 9064 particle counter and the Model 3000A liquid syringe sampler (11801 Tech Road, Silver Spring, Md. 20904, U.S.A.).
Particle size was determined using a Hiac/Royco system, which includes the Model 9064 particle counter and the Model 3000A liquid syringe sampler (11801 Tech Road, Silver Spring, Md. 20904, U.S.A.). Samples were prepared in water saturated with modafinil. For each sample preparation, five consecutive readings were measured. The test was done in triplicate and the average was reported.

In a further series the test system is mice. The note with it: single administration (Duteil et al.); cited from earlier work.
A further series has as its system monkeys. The note with it: single administration (Duteil et al.); cited from earlier work.

With `NC(=O)C[S+]([O-])C(c1ccccc1)c1ccccc1` (stereo not shown) [modafinil, 2-(benzhydrylsulfinyl)acetamide], the median particle size in series [1] (pretreated modafinil particles) came out at 148 μm. Further, the “diameter exceeded by 5% of the total of pretreated modafinil particles” value in series [1] is 277 μm. In addition, the locomotor activity entry in the series on mice is “increased locomotor activity”. In the series with monkeys, the nocturnal activity entry was “increased nocturnal activity”.

(Values after patent publication US20040253308A1, “Surface-treated modafinil particles” (Barr Laboratories, Inc., priority 2003, published 2004).)
